The record followed here is US20240374550A1, “GINGERENONE A PRODRUGS AND METHODS OF USE” (The U.S.A., as Represented by the Secretary, Department of …, priority 2022, published 2024).

“Also recorded” adds a separate entry of the source.

The term AUC denotes the area under the concentration-time curve, a measure of exposure. A higher AUC goes with high exposure.

In data set [1] the test system is senescent WI-38 fibroblasts. Description: MTT cell viability assay, IR-induced senescent WI-38 fibroblasts. It counts as cell-based, human. The settings on record: for senolytic activity (ability to selectively decrease cell viability of senescent cells): 72 h, ginger components at 100 μM, 6-shogaol 3.6 μM, 8-shogaol 33 μM, 6-gingerol 20 μM; for senescent cell viability: D+Q (dasatinib 250 nM + quercetin 10 μM), gingerenone A 20 μM, 6-shogaol 72.4 nM. As to the method: Cell culture and treatments: WI-38 human diploid fibroblasts (HDFs) were cultured in Dulbecco's modified Eagle's medium (DMEM) supplemented with 10% heat-inactivated fetal bovine serum (FBS), penicillin and streptomycin, and non-essential amino acids at 37° C. in a 5% CO2 incubator. HDFs were rendered senescent by exposure to 10 Gy of ionizing radiation (IR) and then cultured for an additional ten days. Proliferating and senescent WI-38 cells were seeded in triplicate overnight at 2×10^5 cells/well (in 6 well plates) to achieve ˜60% confluence by the next day. Cells were then treated with the extracts for times indicated. […]
MTT cell viability: The MTT assay (Bio Vision Milpitas, CA) was carried out following the manufacturer's protocol. Briefly, the media was gently removed from each well and 50 μl of serum-free medium+50 μl of Solution A were added to each well. The plates were incubated at 37° C. for MTT reduction into formazan for 3 h. Next, 150 μl Solution B was added to each well and the plate was covered with foil and shaken at 600 rpm for 15 min. The absorbance was measured at 590 nm using Enspire, Perkin Elmer Multimode plate reader. […]
WI-38 fibroblasts were rendered senescent by exposure to ionizing radiation (IR, 10 Gy) and cultured for an additional 10 days. […] Data represent the means and standard error from three biological replicates. The major components of ginger extract, namely 6-gingerol, 8-gingerol, 10-gingerol, 6-shogaol, 8-shogaol, gingerenone A, and zingerone, were screened for their ability to selectively decrease cell viability of senescent cells using the MTT assay (FIG. 10A).

Data set [2] has as its system proliferating WI-38 fibroblasts. Description: MTT cell viability assay, proliferating WI-38 fibroblasts. Format: cell-based, human. As to conditions: 48 h; D+Q (dasatinib 250 nM + quercetin 10 μM), gingerenone A 20 μM, 6-shogaol 72.4 nM. As to the method:
Cell culture and treatments: WI-38 human diploid fibroblasts (HDFs) were cultured in Dulbecco's modified Eagle's medium (DMEM) supplemented with 10% heat-inactivated fetal bovine serum (FBS), penicillin and streptomycin, and non-essential amino acids at 37° C. in a 5% CO2 incubator. HDFs were rendered senescent by exposure to 10 Gy of ionizing radiation (IR) and then cultured for an additional ten days. Proliferating and senescent WI-38 cells were seeded in triplicate overnight at 2×10^5 cells/well (in 6 well plates) to achieve ˜60% confluence by the next day. Cells were then treated with the extracts for times indicated.
In 24-well plates, cells were treated with multiple dilutions (1:200 and 1:500) of Harpagophytum procumbens (Devil's Claw) (herb to menstruum ratio, 1:3), Uncaria tomentosa (Cat's Claw) (herb to menstruum ratio, 1:3), Zingiber officinale Rosc. […]
MTT cell viability: The MTT assay (Bio Vision Milpitas, CA) was carried out following the manufacturer's protocol. […] The absorbance was measured at 590 nm using Enspire, Perkin Elmer Multimode plate reader.
Four plant extracts were screened for senolytic activity, including extracts from Harpagophytum procumbens (Devil's Claw), Uncaria tomentosa (Cat's Claw), Zingiber officinale Rosc. […] In FIG. 8B, the impact on ginger extract on proliferating and senescent cells on cell survival was assessed by the MTT cell viability assay. […]

The subject of data set [3] is SASP cytokines and chemokines secreted by senescent WI-38 fibroblasts. The data set can be described thus: Secreted protein analysis (ELISA, Luminex multiplex, V-PLEX) of SASP factors. It counts as cell-based, human. The settings on record: 24 h. The procedure: Secreted protein analysis-ELISA, Luminex Multiplex and V-PLEX: Media was collected at the earliest timepoint (24 h after treatments) to avoid cell death that could interfere with the assay. The media was centrifuged at 1000×g for 5 min to remove debris. The secretion of IL-6 was measured by the Quantikine ELISA Kit (R&D systems) and the expression of pro-inflammatory cytokines and chemokines [IL-6, TNFα, CCL2 (MCP-1), IL-8, IFNß] was also assessed by multiplex assays (customized Luminex plate, R&D) according to the manufacturer's instructions. The V-PLEX Plus Proinflammatory Panel 1 Human Kit and the Chemokine Panel 1 preparation and detection were carried out following the manufacturer's protocol (Mesoscale Diagnostics) using >80% confluency of proliferating or senescent cells on 24-well plates. Briefly, different concentrations of standards and samples were added to the plates, and they were incubated for 2 h on a microplate shaker. The plates were washed, and the corresponding detection antibody mixture was added to each well and incubated for 1 h with shaking. The plates were washed twice then Read buffer was added to each well. The plates were read on the MESO Quickplex SQ 120 (MSD, Rockville, MD) and protein concentrations were determined using MSD Discovery workbench 4.0. The effects of gingerenone A, 6-shogaol and D+Q on cytokines and chemokines that are known to be part of the senescence-associated secretory phenotype (SASP) were tested. WI-38 fibroblasts were rendered senescent by exposure to ionizing radiation (IR, 10 Gy) and cultured for an additional 10 days. Cells were then treated with gingerenone A (20 μM) and 6-shogaol (72.4 nM) and incubated for 24 h. CCL-2 (MCP-1) and IL-10 were measured using the Bio-plex (Multiplex); IL6 was measured using Quantikine IL-6 (R&D) (FIG. 12A). Data were normalized to cell number/total protein content. Data in graphs represent the means and standard error from three biological replicates. […] Ratios of cleaved pro-caspase 3 to total caspase 3, normalized to ACTB levels, are shown as relative to control proliferating cells. Cytokines (FIG. 13A) and chemokines (FIG. 13B) were measured using the V-plex panel (MSD) after treatment for 24 h with the indicated drugs. Relative secretion was measured as pg/ml vs control normalized on TE. Data in the graphs represent the means and standard error from three biological replicates.

For data set [4], the system named is p53, Bcl-XL, cleaved caspase-3 in proliferating and senescent WI-38 fibroblasts. Description: Western blot protein analysis (p53, Bcl-XL, cleaved caspase-3). It counts as cell-based, human. As to conditions: 48 h, senescent cells. The procedure: Protein analysis: Cells were lysed in RIPA lysis buffer (Pierce, ThermoFisher) containing protease and phosphatase inhibitors (Roche) and incubated on ice for 10 min. The lysates were then sonicated for 5 min and centrifuged for 10 min at 4° C. to remove the insoluble fraction. The remaining supernatant was the whole-cell lysate. Lysates were separated by SDS-polyacrylamide gel electrophoresis (SDS-PAGE) and transferred onto nitrocellulose membranes (Biorad). Incubations with primary antibodies recognizing p21, p53, Beta-Actin (ACTB) (Santa Cruz Biotechnology), as well as caspase-3 (Abcam) and Bcl-XL (Cell Signaling) were followed by incubations with the appropriate secondary antibodies conjugated with horseradish peroxidase (GE Healthcare). Signals were developed using Enhanced Chemiluminescence (ECL) and acquired by using the ChemiDoc MP Imaging System (BioRad).
The effects of gingerenone A, 6-shogaol and D+Q on cytokines and chemokines that are known to be part of the senescence-associated secretory phenotype (SASP) were tested. WI-38 fibroblasts were rendered senescent by exposure to ionizing radiation (IR, 10 Gy) and cultured for an additional 10 days. Cells were then treated with gingerenone A (20 μM) and 6-shogaol (72.4 nM) and incubated for 24 h. CCL-2 (MCP-1) and IL-10 were measured using the Bio-plex (Multiplex); IL6 was measured using Quantikine IL-6 (R&D) (FIG. 12A). Data were normalized to cell number/total protein content. Data in graphs represent the means and standard error from three biological replicates. […] Ratios of cleaved pro-caspase 3 to total caspase 3, normalized to ACTB levels, are shown as relative to control proliferating cells. Cytokines (FIG. 13A) and chemokines (FIG. 13B) were measured using the V-plex panel (MSD) after treatment for 24 h with the indicated drugs. Relative secretion was measured as pg/ml vs control normalized on TE. Data in the graphs represent the means and standard error from three biological replicates.
To determine whether gingerenone A and 6-shogaol might influence the apoptotic pathway, their effect on the levels of cleaved caspase-3 (pro-apoptotic marker), and Bcl-XL (anti-apoptotic protein) (FIG. 12B) was tested.

For data set [5], the system named is circulating cytokines/chemokines in serum. Description: Chronic administration, serum cytokines/chemokines. Format: in vivo, C57BL/6JN mice. The settings on record: GinA 10 mg/kg/day, modGinA 27 mg/kg/day, 10 weeks. The procedure:
(§1) A chronic administration of GinA (10 mg/kg/day; 1.8 mg/mL) and modGinA (27 mg/kg/day, 4.8 mg/mL) or vehicle (high oleic sunflower oil) was carried out daily for 10 weeks in C57BL/6JN mice (79-80 weeks old). The serum was analyzed for circulating levels of cytokines/chemokines during treatment (9th week) and 10 days after cessation of drug administration. […] FIGS. 16A and 16B show circulating levels of IL-5 in serum during treatment (9 weeks; FIG. 16A) and after treatment (FIG. 16B) with daily oral administration of 10 mg/kg of GinA or 27 mg/kg of modGinA. IL-5 was significant in post treatment using the unadjusted Kruskal-Wallace test between the three groups (vehicle, GinA and modGinA) and unadjusted unpaired t-test between either group and vehicle and during treatment using unadjusted unpaired t-test in the modGinA treatment group.

The test system of data set [6] is circulating metabolites and lipid species in serum. The data set can be described thus: Chronic administration, serum metabolomic and lipid analysis. Format: in vivo, C57BL/6J male mice. The settings on record: daily oral GinA 10 mg/kg or modGinA 27 mg/kg, at 9 weeks, compared to vehicle. The procedure: as §1
Additionally, modGinA administration increased circulating levels of multiple DHA- and EPA-containing lipid species, including phospholipids and cholesterol esters during treatment.

Another data set in a line: in vivo. As to conditions: male, C57BL/6J, mouse, po, 10 mg/kg.

Experimental for in vivo: Gingerenone A Quantification: The analysis of Gingerenone A, EPA and DHA was accomplished using a Phenomencx® Security Guard® C18 column (4 x3 mm ID, Phenomenex, Torrance, CA) and a Waters™ Xbridge® C18 3.5 μm column (2.1 mm×100 mm, Waters Corporation, Milford, MA). The mobile phase consisted of 5 mM ammonium formate and 0.1% formic acid as component A and acetonitrile as component B. A linear gradient was run as follows: 0 min 10% B; 1 min 10% B, 5 min 90% B; 10 min 90% B; 10.1 min 10% B at a flow rate of 0.2 mL/min, with an oven temperature at 40° C. The total run time was 15 min per sample. […] For DHA, the TIS compound parameter settings (declustering potential, collision energy and cell exit potential) for MRM was −135 V, —14 V and −13 V and for naringenin MRM was −100 V, —24 V and −10 V, and MRM2 was −100V, —33 V and −10 V. The data were acquired and analyzed using Analyst version 1.4.2 (Applied Biosystems). The relative quantitation of gingerenone A, EPA and DHA was accomplished by using the area under the curves. […] For the quantitation of gingerenone A, a seven-point calibration curve (12.5 to 0.097 ng/ml) was carried out. […]
The peak areas in circulating gingerenone A levels were measured as described above in the Methods section.

On to `CCCCC[C@H](O)CC(=O)CCc1ccc(O)c(OC)c1` [6-gingerol], for which the “senolytic activity (ability to selectively decrease cell viability of senescent cells)” value in data set [1] was “only 6-shogaol and gingerenone A displayed senolytic activity”.
For `CCCCC/C=C/C(=O)CCc1ccc(O)c(OC)c1` [6-shogaol], the senescent cell viability result in data set [1] (48 h) is “moderate degree of cell death”. The “senolytic activity (ability to selectively decrease cell viability of senescent cells)” value in data set [1] is listed as “displayed senolytic activity”. The “effect on proliferating cells” value in data set [2] is “significant increase”. In data set [3] (72.4 nM), the “changes in any of the cytokines and chemokines measured” value is reported as “did not induce major changes”. In addition, in data set [4], the “expression of anti-apoptotic protein Bcl-XL” value is “reduced” and the “levels of pro-apoptotic protein cleaved caspase-3” value is reported as “increase”.
Take `CCCCCCC[C@H](O)CC(=O)CCc1ccc(O)c(OC)c1` [8-gingerol]: in data set [1], the “senolytic activity (ability to selectively decrease cell viability of senescent cells)” value was “only 6-shogaol and gingerenone A displayed senolytic activity”.
Same read-out and setting: with `CCCCCCC/C=C/C(=O)CCc1ccc(O)c(OC)c1` [8-shogaol] the entry was “only 6-shogaol and gingerenone A displayed senolytic activity”; with `CCCCCCCCC[C@H](O)CC(=O)CCc1ccc(O)c(OC)c1` [10-gingerol], “only 6-shogaol and gingerenone A displayed senolytic activity”.
With `COc1cc(CC/C=C/C(=O)CCc2ccc(O)c(OC)c2)ccc1O` [gingerenone A, Gingerenone A], the “senescent cell viability relative to proliferating cells” value in data set [1] (20 μM, 48 h, p=0.04) is on record as “significant decrease; also recorded: significantly decreased”. The “selectivity for senescent over proliferating cells” value in data set [1] (48 h, 20 μM, compared to D+Q) was “higher selectivity”. Besides, in data set [1] (48 h), the senescent cell viability entry is given as “significantly decreased”. The “senolytic activity (ability to selectively decrease cell viability of senescent cells)” value in data set [1] is “displayed senolytic activity”. Also, in data set [2], the “effect on proliferating cells” value is “did not show any significant effect”. Besides, in data set [3] (20 μM), the “level of IL-1β” value is “increased” and the “level of IL-13” value is “increased”. Also, the “level of IL-10” value in data set [3] (20 μM, multiplex ELISA (FIG. 12A)) is listed as “increased”. In addition, the “level of IL-10” value in data set [3] (V-Plex (FIG. 13A)) is reported as “unchanged”. In addition, in data set [3] (gingerenone A 20 μM, D+Q), the “level of IL-8” value is listed as “increased”, the “secreted level of CCL2 (MCP-1)” value is “reduced” and the “secreted level of IL-6” value is given as “reduced”. In addition, in data set [3] (gingerenone A 20 μM, D+Q, V-plex), the “secreted level of IP-10” value is “reduced”. Besides, in data set [4], the “expression of anti-apoptotic protein Bcl-XL” value was “reduced” and the “levels of pro-apoptotic protein cleaved caspase-3” value was “increase”. Further, the “serum IL-5” value in data set [5] (post treatment, unadjusted unpaired t-test vs vehicle) is “reduced”. Also, in data set [5] (ten days after termination), the “serum IL-2” value is given as “reduced”. Besides, in data set [6], the “serum concentration of beta-alanine” value is “did not increase” and the “serum concentration of choline” value is given as “did not increase”. This compound also displayed an AUC in “in vivo” of 1.25 ng·h/mL.
`COc1cc(CCC(C)=O)ccc1O` [zingerone]: the “senolytic activity (ability to selectively decrease cell viability of senescent cells)” value in data set [1] was “only 6-shogaol and gingerenone A displayed senolytic activity”.
